Test results from patent US10544106B2, “Certain chemical entities, compositions, and methods” (NeuPharma, Inc., priority 2016, dated 2020).

target: BTK (Homo sapiens (Human), UniProt Q06187); test: Z'-LYTE kinase inhibition assay against BTK; assay type: biochemical; conditions: compound at 100 nM; ATP concentration at Km
Procedure: Inhibitory activities of compounds against BTK, EGFR T790M, EGFR L858R, and EGFR L858R/T790M were measured using Z′-LYTE® Method from Life Technologies as briefly described in the following.
Test Compounds are screened in 1% DMSO (final) in the well. For 10 point titrations, 3-fold serial dilutions are conducted from the starting concentration. All ATP Solutions are diluted to a 4× working concentration in Kinase Buffer (50 mM HEPES pH 7.5, 0.01% BRIJ-35, 10 mM MgCl2, 1 mM EGTA). Peptide/Kinase Mixtures are diluted to a 2× working concentration in the appropriate Kinase Buffers as described below. • (i) Peptide/Kinase Mixtures for measurement of EGFR (ErbB1) L858R: • The 2×EGFR (ErbB1) L858R/Tyr 04 mixture is prepared in 50 mM HEPES pH 7.5, 0.01% BRIJ-35, 10 mM MgCl2, 4 mM MnCl2. 1 mM EGTA, 2 mM DTT. The final 10 μL Kinase Reaction consists of 0.2-1.68 ng EGFR (ErbB1) L858R and 2 μM Tyr 04 in 50 mM HEPES pH 7.5, 0.01% BRIJ-35, 10 mM MgCl2, 2 mM MnCl2, 1 mM EGTA, 1 mM DTT. After the 1 hour Kinase Reaction incubation, 5 μL of a 1:64 dilution of Development Reagent B is added. • (ii) Peptide/Kinase Mixtures for measurement of EGFR (ErbB1) T790M: The 2×EGFR (ErbB1) T790M/Tyr 04 mixture is prepared in 50 mM HEPES pH 6.5, 0.01% BRIJ-35, 10 mM MgCl2, 1 mM EGTA, 0.02% NaN3. The final 10 μL Kinase Reaction consists of 3.9-30.2 ng EGFR (ErbB1) T790M and 2 μM Tyr 04 in 50 mM HEPES pH 7.0, 0.01% BRIJ-35, 10 mM MgCl2, 1 mM EGTA, 0.01% NaN3. After the 1 hour Kinase Reaction incubation, 5 μL of a 1:64 dilution of Development Reagent B is added. • (iii) Peptide/Kinase Mixtures for measurement of EGFR (ErbB1) L858R/T790M: The 2×EGFR (ErbB1) T790M L858R/Tyr 04 mixture is prepared in 50 mM HEPES pH 6.5, 0.01% BRIJ-35, 10 mM MgCl2, 1 mM EGTA, 0.02% NaN3. The final 10 μL Kinase Reaction consists of 0.38-4.22 ng EGFR (ErbB1) T790M L858R and 2 μM Tyr 04 in 50 mM HEPES pH 7.0, 0.01% BRIJ-35, 10 mM MgCl2, 1 mM EGTA, 0.01% NaN3. After the 1 hour Kinase Reaction incubation, 5 μL of a 1:64 dilution of Development Reagent B is added. • (iv) Peptide/Kinase Mixtures for measurement of BTK: The 2×BTK/Tyr 01 mixture is prepared in 50 mM HEPES pH 7.5, 0.010/BRIJ-35, 10 mM MgCl2, 1 mM EGTA. The final 10 μL Kinase Reaction consists of 1.04-10.4 ng BTK and 2 μM Tyr 01 in 50 mM HEPES pH 7.5, 0.01% BRIJ-35, 10 mM MgCl2, 1 mM EGTA. After the 1 hour Kinase Reaction incubation, 5 μL of a 1:256 dilution of Development Reagent B is added.
Reaction starts by 30-second shaking of mixture consisting of 2.5 μL 4× test compound, 5 μL 2× kinase reaction mixture and 2.5 μL 4×ATP Solution on Bar-coded Corning, low volume NBS, black 384-well plate (Corning Cat. #3676). Then the mixture is incubated for 60-minute at room temperature for the kinase reaction, followed by addition of 5 μL of a 1:1024 dilution of development reagent A and 30-second plate shake. The mixture is then incubated for another 60-minute at room temperature for development reaction. Finally fluorescence is read by plate reader.
The Z′-LYTE assay was carried out with ATP concentration at Km. The scale utilized in Tables 2-6 is as follows: ++ more than 50% inhibition and + less than 50% inhibition.
To determine IC50 of a compound against a kinase, a series of concentrations of the compound were tested for the inhibition. IC50 was calculated by plotting the concentration of compound vs the percentage of inhibition in treated wells using GraphPad Prism 5. […] The scale utilized in Table 7 is as follows: ++ less than 100 nM and + greater than 100 nM.

BTK, sequence (Q06187 whole entry): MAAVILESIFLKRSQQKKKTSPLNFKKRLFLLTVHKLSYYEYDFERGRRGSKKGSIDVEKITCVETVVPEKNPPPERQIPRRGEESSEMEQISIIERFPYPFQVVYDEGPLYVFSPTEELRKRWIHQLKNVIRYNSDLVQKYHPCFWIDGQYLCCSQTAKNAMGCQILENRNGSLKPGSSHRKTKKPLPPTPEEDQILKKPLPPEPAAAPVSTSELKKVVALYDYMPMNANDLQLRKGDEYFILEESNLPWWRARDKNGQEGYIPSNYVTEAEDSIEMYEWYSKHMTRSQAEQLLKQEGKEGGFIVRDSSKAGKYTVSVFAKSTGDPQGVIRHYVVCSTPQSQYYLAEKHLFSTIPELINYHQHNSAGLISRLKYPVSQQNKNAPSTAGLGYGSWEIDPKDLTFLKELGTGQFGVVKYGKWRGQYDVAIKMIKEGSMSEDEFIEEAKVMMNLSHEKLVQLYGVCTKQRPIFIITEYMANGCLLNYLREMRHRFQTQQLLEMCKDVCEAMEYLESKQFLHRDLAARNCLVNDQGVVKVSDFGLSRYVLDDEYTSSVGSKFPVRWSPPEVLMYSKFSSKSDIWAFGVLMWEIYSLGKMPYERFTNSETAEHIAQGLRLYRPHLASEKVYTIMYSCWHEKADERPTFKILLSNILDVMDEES

SMILES	inhibition at 0.1 µM [%]
C=CC(=O)N1CCC(c2cc(-c3ccc(Oc4ccccc4)cc3)n3cnccc23)C1 (centres unmarked) [C063, 1-(3-(7-(4-phenoxyphenyl)pyrrolo[1,2-c]pyrimidin-5-yl)pyrrolidin-1-yl)prop-2-en-1-one]	> 50
C=CC(=O)N1CCC(c2cc(-c3cncc(C(F)(F)F)c3)cc3cncnc23)C1 (centres unmarked) [C066, 1-(3-(6-(5-(trifluoromethyl)pyridin-3-yl)quinazolin-8-yl)pyrrolidin-1-yl)prop-2-en-1-one]	< 50
C=CC(=O)N1CCC(c2cc(-c3ccc(C(=O)Nc4ccccn4)cc3Cl)cc3cncnc23)C1 (centres unmarked) [C067, 4-(8-(1-acryloylpyrrolidin-3-yl)quinazolin-6-yl)-3-chloro-N-(pyridin-2-yl)benzamide]	> 50
C=CC(=O)N1CCC(c2cc(-c3ccc(C(=O)Nc4cccc(C(F)(F)F)c4)cc3)cc3cncnc23)C1 (centres unmarked) [C068, 4-(8-(1-acryloylpyrrolidin-3-yl)quinazolin-6-yl)-N-(3-(trifluoromethyl)phenyl)benzamide]	< 50
C=CC(=O)Nc1cccc(-c2cc(-c3ccc(C(=O)Nc4ccccn4)nc3)cc3cncnc23)c1 [C069, 5-(8-(3-acrylamidophenyl)quinazolin-6-yl)-N-(pyridin-2-yl)picolinamide]	> 50
C=CC(=O)Nc1cccc(-c2cc(-c3ccc(C(=O)Nc4cccc(C)c4)nc3)cc3cncnc23)c1 [C070, 5-(8-(3-acrylamidophenyl)quinazolin-6-yl)-N-(m-tolyl)picolinamide]	< 50
C=CC(=O)Nc1cccc(-c2cc(-c3ccc(C(=O)Nc4cccc(C(F)(F)F)c4)nc3)cc3cncnc23)c1 [C071, 5-(8-(3-acrylamidophenyl)quinazolin-6-yl)-N-(3-(trifluoromethyl)phenyl)picolinamide]	> 50
C=CC(=O)Nc1cccc(-c2cc(-c3ccc(Oc4ccc(Cl)cc4)nc3)cc3cncnc23)c1 [C072, N-(3-(6-(6-(4-chlorophenoxy)pyridin-3-yl)quinazolin-8-yl)phenyl)acrylamide]	< 50
C=CC(=O)Nc1cccc(-c2cc(-c3ccccc3C#N)cc3cncnc23)c1 [C075, N-(3-(6-(2-cyanophenyl)quinazolin-8-yl)phenyl)acrylamide]	> 50
C=CC(=O)N1CCC(c2cc(-c3ccc(Oc4ccccc4)nc3)cc3cncnc23)C1 (centres unmarked) [C077, 1-(3-(6-(6-phenoxypyridin-3-yl)quinazolin-8-yl)pyrrolidin-1-yl)prop-2-en-1-one]	< 50
C=CC(=O)N1CCC(c2cc(-c3ccc(Oc4ccccc4)cc3)cc3cnc(N)nc23)C1 (centres unmarked) [C078, 1-(3-(2-amino-6-(4-phenoxyphenyl)quinazolin-8-yl)pyrrolidin-1-yl)prop-2-en-1-one]	> 50
C=CC(=O)N1CCC(c2cc(-c3ccc(C(=O)Nc4ccccn4)cc3)cc3cncnc23)C1 (centres unmarked) [C079, 4-(8-(1-acryloylpyrrolidin-3-yl)quinazolin-6-yl)-N-(pyridin-2-yl)benzamide]	< 50
C=CC(=O)N1CCC(c2cc(-c3ccc(C(=O)Nc4cccc(C)c4)nc3)cc3cncnc23)C1 (centres unmarked) [C080, 5-(8-(1-acryloylpyrrolidin-3-yl)quinazolin-6-yl)-N-(m-tolyl)picolinamide]	< 50
C=CC(=O)Nc1cccc(-c2cc(-c3ccc(Oc4cccc(C(F)(F)F)c4)nc3)cc3cncnc23)c1 [C081, N-(3-(6-(6-(3-(trifluoromethyl)phenoxy)pyridin-3-yl)quinazolin-8-yl)phenyl)acrylamide]	> 50
C=CC(=O)N1CCC(c2cc(-c3ccc(Oc4cccc(C(F)(F)F)c4)nc3)cc3cncnc23)C1 (centres unmarked) [C082, 1-(3-(6-(6-(3-(trifluoromethyl)phenoxy)pyridin-3-yl)quinazolin-8-yl)pyrrolidin-1-yl)prop-2-en-1-one]	< 50
C=CC(=O)N1CCC(c2cc(-c3ccccc3)cc3cnc(N)nc23)C1 (centres unmarked) [C083, 1-(3-(2-amino-6-phenylquinazolin-8-yl)pyrrolidin-1-yl)prop-2-en-1-one]	< 50
C=CC(=O)N1CCC(c2cc(-c3ccccc3F)cc3cncnc23)C1 (centres unmarked) [C084, 1-(3-(6-(2-fluorophenyl)quinazolin-8-yl)pyrrolidin-1-yl)prop-2-en-1-one]	< 50
C=CC(=O)N1CCC(c2cc(-c3ccccc3F)cc3cnc(N)nc23)C1 (centres unmarked) [C085, 1-(3-(2-amino-6-(2-fluorophenyl)quinazolin-8-yl)pyrrolidin-1-yl)prop-2-en-1-one]	< 50
C=CC(=O)Nc1cccc(-c2cc(-c3ccc(Oc4cccc(F)c4)nc3)cc3cncnc23)c1 [C086, N-(3-(6-(6-(3-fluorophenoxy)pyridin-3-yl)quinazolin-8-yl)phenyl)acrylamide]	> 50
C=CC(=O)Nc1cccc(-c2cc(-c3ccc(C(=O)Nc4ccccn4)cc3F)cc3cncnc23)c1 [C087, 4-(8-(3-Acrylamidophenyl)quinazolin-6-yl)-3-fluoro-N-(pyridin-2-yl)benzamide]	< 50
C=CC(=O)Nc1cccc(-c2cc(-c3ccc(Oc4cc(C(F)(F)F)ccn4)cc3Cl)cc3cncnc23)c1 [C088, N-(3-(6-(2-chloro-4-((4-(trifluoromethyl)pyridin-2-yl)oxy)phenyl)quinazolin-8-yl)phenyl)acrylamide]	> 50
C=CC(=O)Nc1cccc(-c2cc(-c3ccc(C(=O)Nc4ccccc4)cc3F)cc3cncnc23)c1 [C089, 4-(8-(3-Acrylamidophenyl)quinazolin-6-yl)-3-fluoro-N-phenylbenzamide]	> 50
C=CC(=O)N1CCC(c2cc(-c3ccc(Oc4cc(C(F)(F)F)ccn4)cc3F)cc3cncnc23)C1 (centres unmarked) [C090, 1-(3-(6-(2-Fluoro-4-((4-(trifluoromethyl)pyridin-2-yl)oxy)phenyl)quinazolin-8-yl)pyrrolidin-1-yl)prop-2-en-1-one]	< 50
C=CC(=O)Nc1cccc(-c2cc(-c3ccccc3C#N)cc3cnc(N)nc23)c1 [C091, N-(3-(2-amino-6-(2-cyanophenyl)quinazolin-8-yl)phenyl)acrylamide]	> 50
C=CC(=O)Nc1cccc(-c2cc(-c3ccc(C(=O)Nc4cccc(F)c4)nc3)cc3cncnc23)c1 [C092, 5-(8-(3-acrylamidophenyl)quinazolin-6-yl)-N-(3-fluorophenyl)picolinamide]	> 50
C=CC(=O)N1CCC(c2cc(-c3ccc(C(=O)Nc4cccc(C(F)(F)F)c4)nc3)cc3cncnc23)C1 (centres unmarked) [C093, 5-(8-(1-acryloylpyrrolidin-3-yl)quinazolin-6-yl)-N-(3-(trifluoromethyl)phenyl)picolinamide]	< 50
C=CC(=O)N1CCC(c2cc(-c3ccc(C(=O)Nc4ccccn4)cc3F)cc3cncnc23)C1 (centres unmarked) [C094, 4-(8-(1-acryloylpyrrolidin-3-yl)quinazolin-6-yl)-3-fluoro-N-(pyridin-2-yl)benzamide]	< 50

same assay, conditions: series of concentrations; GraphPad Prism 5

SMILES	IC50 [nM]
C=CC(=O)N1CCC(c2cc(-c3ccc(C(=O)Nc4ccccn4)cc3Cl)cc3cncnc23)C1 (centres unmarked) [C067, 4-(8-(1-acryloylpyrrolidin-3-yl)quinazolin-6-yl)-3-chloro-N-(pyridin-2-yl)benzamide]	< 100
C=CC(=O)Nc1cccc(-c2cc(-c3ccccc3C#N)cc3cncnc23)c1 [C075, N-(3-(6-(2-cyanophenyl)quinazolin-8-yl)phenyl)acrylamide]	< 100
C=CC(=O)N1CCC(c2cc(-c3ccc(Oc4ccccc4)cc3)cc3cnc(N)nc23)C1 (centres unmarked) [C078, 1-(3-(2-amino-6-(4-phenoxyphenyl)quinazolin-8-yl)pyrrolidin-1-yl)prop-2-en-1-one]	< 100
C=CC(=O)Nc1cccc(-c2cc(-c3ccc(Oc4cccc(F)c4)nc3)cc3cncnc23)c1 [C086, N-(3-(6-(6-(3-fluorophenoxy)pyridin-3-yl)quinazolin-8-yl)phenyl)acrylamide]	< 100
C=CC(=O)Nc1cccc(-c2cc(-c3ccccc3C#N)cc3cnc(N)nc23)c1 [C091, N-(3-(2-amino-6-(2-cyanophenyl)quinazolin-8-yl)phenyl)acrylamide]	< 100
